Reference: paper PMC5398698, “Uncovering the molecular and physiological processes of anticancer leads binding human serum albumin: A physical insight into drug efficacy” (PLoS ONE, 2017)
Where two headings read alike, the source gives them in different places.

Tests used:
[1] = target: T1, Human serum albumin (HSA) (Homo sapiens, UniProt P02768); assay: Steady-state fluorescence quenching of HSA by anticancer leads; format: binding; conditions: for ΔG: temperature-dependent fluorescence quenching
T1 construct: purchased Sigma-Aldrich A3782
Description: Steady-state fluorescence spectra were recorded on an Eclipse fluorescence spectrophotometer (Agilent Cary, USA) with a 1 cm path length quartz cuvette at 293 K and 298 K, respectively. Sample temperature was kept within ± 0.2 degree by recycled water throughout the experiment. The excitation and emission band passes were all set at 5 nm by keeping the excitation wavelength at 290 nm to achieve maximum fluorescence emission. The emission spectra was measured in the region of 305–450 nm, and the fluorescence intensity at peak position 340 nm was extracted for further analysis. HSA was diluted from stock solution with reaction buffer to a concentration of 10 μM for each quenching experiment. Titration was performed by successive addition of 1 mM anticancer leads into quartz cuvette, and the minor intensity decrease due to volume change was corrected by the control experiment.
In Fluorescence quenching, the inner filter effect (IFE) is of importance due to its effect on the emission intensity. One of the biggest causes of the IFE is the re-absorption of the emitted light in the excitation and emission region. It is an important issue that these effects cause severe underestimation of the fluorescence intensity measured because the concentration of the quencher increases when a Stern-Volmer analysis is carried out, and therefore the ability of the quencher to absorb the emitted light will also increase.
Where Aem and Aex represent the absorbance of small moecule at emission and excitation wavelength, respectively. F0 and Fc represent the observed fluorescence intensity and corrected fluorescence intensity, respectively.
In an attempt to gain insight into the molecular mechanism of HSA association, we have determined the binding mechanism, binding constant, binding site, and the number of binding sites. […] (1) Where F and F0 is the steady state fluorescence intensity in the presence and absence of quencher, respectively; Kq, τ0 and [Q] is the quenching rate constant, the average lifetime of the molecule without quencher and the concentration of quencher, respectively.
Modified Stern-Volmer plots are shown in Fig 3C and 3D, showing good linearity to modified Stern-Volmer equation: log[(F0−F)/F]=logKA+nlog[Q] (2)
F0−F/F0=Bmax(KA[Q])^h/1+(KA[Q])^h+Pnsb×[Q] (3)
Where F and F0 are the steady state fluorescence intensity in the presence and absence of quencher, respectively; [Q] is the concentration of quencher, Bmax is the maximum independent binding site classes, KA is the effective binding affinity; h is the Hill coefficient that describes the degree of ligand binding cooperativity and Pnsb is the nonspecific binding coefficient.
Usually, the types of interaction forces between small molecules and macromolecules mainly include hydrogen bonds, van der Waals forces, electrostatic interactions and hydrophobic interactions. To estimate the binding mode, the thermodynamic parameters, ΔH, ΔS and ΔG are often considered. On the basis of the characteristic signs of the thermodynamic parameters, the interaction forces between small molecule and protein can be assigned to hydrophobic interaction (ΔH > 0, ΔS > 0), van der Waals force (ΔH < 0, ΔS < 0) and electrostatic attraction (ΔH < 0, ΔS > 0). The entropy and enthalpy can be considered constant at a constant temperture, which is regulated by the van’t Hoff equation: lnKA=−ΔH/RT+ΔS/R (4)

[2] = target: T1, Human serum albumin (HSA); assay: SPR binding kinetic measurement on immobilized HSA
Description: Binding kinetic measurement was performed using Reichert 4-chanel SPR instrument Reichert4SPR (Reichert, USA). HSA was immobilized on carboxymethyl dextran chip at the condition of 0.1 mg/mL protein in 10 mM sodium acetate (pH 4.5). The final density is about 12,000 RU and flow rate is 20 μl/min. During immobilizing, the sensor chip was preconditioned with 3-min injection of double diluted water. Thereafter, the first flow cell surface was activated through using 0.05 M N-hydroxysuccinimide (NHS)/0.2 M 1-ethyl-3-(3-dimethylaminopropyl)carbodiimide hydrochloride (EDC) for 7 min, and then functionalized by injecting a solution of HSA (0.1 mg/mL) in 10 mM sodium acetate buffer (pH 4.5) for 20 min. Finally, unreacted NHS groups were deactivated with 1 M ethanolamine (pH 8.5) for 10 min. Simultaneously, the control flow cell was treated using the same conditions as described above. […] Final data obtained were corrected for instrumental and bulk artifacts by double referencing to a control sensor chip surface and blank buffer injection. The binding responses were concentration-dependent and dissociation constant KD values were derived from 1:1 kinetic model as well as steady state analysis using TraceDrawer software (Reichert, USA).

[3] = target: T1, Human serum albumin (HSA); assay: Isothermal titration calorimetry (ITC) of leads binding HSA; conditions: 310 K
Description: The calorimetry measurement was carried out by isothermal titration calorimetry (ITC) (TA Instruments, USA) at 310 K. HSA in different reaction buffers (0.01 M PBS and 0.025 M MES) were extensively dialyzed before titration. […] The titration was afterward started with continuously stirring at 250 rpm. The raw heat rate data were integrated under injection peaks to obtain the reaction heat of each injection after substracting dilution heat which was measured by injecting with a blank control titration. The calculated heat changes were analyzed using the NANOanalyze software (TA Instruments, USA) and replotted with Origin 8.5. The free energy change (ΔG), enthalpy change (ΔH) and entropy change (ΔS) were calculated according to the thermodynamic formulas below: ΔG=−RTlnKA=ΔH−TΔS
Where KA is the association constant at the absolute temperature T (310 K) and R represents the gas constant (8.3151 J mol^-1K^-1).

[4] = target: T1, Human serum albumin (HSA); assay: Fluorescence resonance energy transfer (FRET) distance HSA W214 to lead; format: binding; conditions: Forster theory; k^2 = 2/3, N = 1.36, Φ = 0.15
Description: Fluorescence resonance energy transfer (FRET) occurs when the UV absorption spectrum of small molecule (acceptor) overlaps with the fluorescence emission spectrum of fluoreophore (donor). The fluorescence emission peak of HSA mostly locates in the range of the UV-vis absorption spectra of the two anticancer leads (Fig 5A and 5B). This indicates the possibility of FRET occuring between HSA and anticancer leads. According to Forster’s non-radiative energy transfer theory, the distance r between donor W214 of HSA and the acceptor of small molecule is determined by the relationship below: E=1−F/F0=R0^6/R0^6+r^6 (5) where E is the energy transfer efficiency; F and F0 are the fluorescence intensity in the presence and absence of quencher. […] In this case here, k^2 = 2/3 is for random orientation as in fluid solution, N = 1.36, Φ = 0.15, and J is calculated as: J=∑F(λ)ε(λ)λ^4Δλ/∑F(λ)Δλ (7) where F(λ) is the fluorescence intensity of the fluorescence donor of wavelength λ; and ε(λ) is the molar absorption coefficient calculated by Lambert-Beer relationship ε(λ) = A(λ)/cl at wavelength λ. The integration step was chosen to be the scanning data interval of 1 nm.

plasma proteins = assay: Estimate of fraction bound to plasma proteins from association constants; design: species or system human; conditions: estimated with Kd / ([P]f + Kd)
Description: The function of HSA as drug carrier may facilitate drug access to the action site and be related to drug safety issues. Application of HSA on drug delivery may therefore be important in anticancer therapy, which has been taken into account in estimating therapeutic outcomes, particularly for highly bound compounds (defined as < 5% free drug compounds in blood). The free to bound drug rates can be estimated by using the formula Kd / ([P]f + Kd) through approximating the free protein concentration as [P]f = [P]T − [L]T [41]. […] Therefore, the affinity determines the steady state concentration of unbound or exposed drug in the plasma, maintaining a concentration gradient between the intestinal lumen and plasma, which is considered as the only fraction exerting the bioactivity. […] Moreover, both hepatic uptake and glomerular filtration are directly proportional to the free drug fraction presented in the plasma while drugs are modulated by the affinity difference of the plasma and tissue proteins. If a drug is highly bound to HSA and has a high extraction raio, the binding promotes metabolism by transporting the drug to liver, resulting in the decrease of free drug fraction. On the other hand, if a drug has a low liver extraction ratio, metabolism will be decreased by high HSA binding. […]

T1 sequence (P02768 25-609): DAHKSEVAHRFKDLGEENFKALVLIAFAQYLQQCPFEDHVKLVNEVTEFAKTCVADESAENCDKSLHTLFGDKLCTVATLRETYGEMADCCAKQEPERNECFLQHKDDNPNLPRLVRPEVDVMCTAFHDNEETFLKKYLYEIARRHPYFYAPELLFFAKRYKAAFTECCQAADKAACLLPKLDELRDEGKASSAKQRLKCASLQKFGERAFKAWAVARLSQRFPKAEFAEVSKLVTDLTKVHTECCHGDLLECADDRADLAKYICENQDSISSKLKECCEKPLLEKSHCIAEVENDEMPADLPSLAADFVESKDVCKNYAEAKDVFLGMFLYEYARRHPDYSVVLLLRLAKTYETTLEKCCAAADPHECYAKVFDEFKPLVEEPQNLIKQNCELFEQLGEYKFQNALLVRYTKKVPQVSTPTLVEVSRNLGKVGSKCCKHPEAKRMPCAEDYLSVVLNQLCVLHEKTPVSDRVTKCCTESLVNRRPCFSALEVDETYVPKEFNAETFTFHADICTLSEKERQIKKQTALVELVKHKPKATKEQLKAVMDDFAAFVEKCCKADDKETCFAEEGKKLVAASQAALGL

CC(=O)OCCC(C)CCC=C(C)C (centres unmarked) [NSC48693]
n (reaction stoichiometric number, modified Stern-Volmer) ([1]; 293 K): 0.91 ± 0.013
binding constant KA (modified Stern-Volmer) ([1]; 293 K, fit to Eq (2)): 3.31 ± 0.16 × 10^4 M^-1
Hill coefficient h (nonlinear regression fitting) ([1]; 293 K, one class of binding sites): ~1.0
ΔG ([1]; T 293 K): -5.614 kcal/mol
ΔG ([1]; T 298 K): -5.636 kcal/mol
n obtained by Hill equation ([1]; as quoted in the ITC comparison): 0.91
quenching rate constant Kq (Stern-Volmer) ([1]; fluorescence lifetime of tryptophan in HSA around 10^-8 s, 10 μM HSA): 1.36 ± 0.016 × 10^12 M^-1s^-1
ΔH ([1]; van't Hoff, 293 K and 298 K): -4.548 kcal/mol
ΔS ([1]; van't Hoff, 293 K and 298 K): 15.27 J mol^-1 K^-1
dissociation rate slower than that of NSC290956 [2]: approximately 5 fold
kinetic behavior ([2]; SPR sensorgram shape): fast-on and slow-off
Ka (association rate constant) ([2]; SPR, 1:1 kinetic model): 2410 M⁻¹ s⁻¹
koff (dissociation rate constant) ([2]; SPR, 1:1 kinetic model): 0.0333 s⁻¹
Kd ([2]; SPR, 1:1 kinetic model, read-out: KD (dividing kinetic parameters, 1:1 model)): 13.8 µM
Kd ([2]; SPR, steady-state phase data, read-out: Steady State KD): 12.3 µM
binding affinity to HSA larger than that of NSC290956 ([2]; as measured with different experimental methods): 3~8 fold
stoichiometry number [3]: 0.94 ± 0.06
ΔG [3]: -6.898 kcal/mol
ΔH [3]: -5.581 ± 0.605 kcal/mol
ΔS [3]: 17.81 J mol^-1 K^-1
binding constant (KA) ([3]; one-site independent model): 7.29 ± 2.68 × 10^4 M^-1
donor-acceptor distance r between HSA and lead [4]: 3.65 nm
compound bound to plasma proteins (plasma proteins): over 98%
